Laboratory results taken from patent publication US8946507B2, “Method of selectively producing male or female sterile plants” (priority 2002, dated 2015).

Legend:
[1] = tested on: Nicotiana tabacum var. Samsun (transgenic, D-amino acid oxidase under female floral promoter); test: Conditional female sterility of transgenic tobacco expressing D-amino acid oxidase in female floral tissue, treated with D-amino acids; format: in vivo; settings: for seed production after treatment: foliar spray usually 0.25-20 kg/ha, root drench or 10-200 mM solution into buds, prior to or during early flower formation; for viable pollen production after treatment: same treatment conditions as for seed production
Description: Tobacco leaf discs are transformed with the recombinant binary vectors using methods similar to those described in Horsch et al (1985) Science, 227, 1229-1231 Many variations of the method may be used. The binary vector can be transformed into, for example, Agrobacterium tumefaciens strain LBA 4404 using the freeze thaw method of transformation. Tobacco transformation and whole plant regeneration is performed using Nicotiana tabacum var. Samsun according to protocols described by Draper et al (Plant Genetic Transformation, Blackwell Sci. Pub. 1989). Transformation events are selected on MS-media containing kanamycin or other suitable antibiotic. The presence of integrated transgenes is confirmed by PCR. Plants are regenerated and allowed to reach maturity and selfed on to produce seed. Northern and/or Western analysis is used to confirm tissue-specific expression of the D-amino acid oxidase genes. […] Seeds of the T1 generation are planted out. Once plantlets have grown to a sufficient size they are tested by PCR for the presence of transgene. PCR positive plants are transferred to the greenhouse. […] A subset of these (putatively) conditionally sterile plants are treated with D-phosphinothricin or D-alanine or D leucine or D asparagine or D methionine or D-aspartate or D-glutamate in various amounts and at varying growth stages. […] For example these amino acids are pure D enantiomers or, alternatively, are DL racemates. For example, they are applied as a foliar spray, prior to or during the early stages of flower formation, at rates usually between 0.25 and 20 kg/ha. Amino acids which may crystallise out of solution on the leaves following foliar application may be redissolved and remobilised for leaf uptake by further applications of water as a spray mist. Amino acids are, for example, also applied as a root drench and optionally, further applied as ˜50 ul of a 10-200 mM solution flooded directly into the buds of emerging florets. Pollen from the treated plants is collected and viability is tested. […] Control plants are both transgenic and non-transgenic and are grown under identical conditions and under an identical regime of physical treatments except that treatment solutions are either water or an equivalent concentration of pure L-amino acid.

[2] = tested on: wheat containing a PAT gene under barley plastocyanin promoter region; test: Reproductive tolerance of wheat containing PAT gene under barley plastocyanin promoter to DL phosphinothricin; format: in vivo; settings: rates up of at least 2 kg/ha
Description: The current invention provides a method of overcoming the problem of enabling the use of a cheap commercial herbicide, DL phosphinothricin, as both weed control and hybridising agent in the production of hybrid cereals and which method, furthermore, provides resultant hybrid cereals or rice in which DL phosphinothricin (or L phosphinothricin) can be safely used for weed control without substantial loss of yield. As a yet further benefit, selfed seed from the F1 generation which may later arise as volunteers in subsequent crops will be easier to manage since they, themselves, will generally be sterile if sprayed with controlling amounts of DL phosphinothricin. The same will hold for the progeny of pollen outcrossing from the F1 plants to weeds (e.g. red rice) or other cereals. The current invention provides genes and enzymes that convert a non-phytotoxic component, D-phosphinothricin, of a commercial herbicide formulation DL phosphinothricin, into the active L form. The PAT gene which converts L-phosphinothricin to N-acetyl L-phosphinithricin is known already and is used commercially to provide tolerance to DL phosphinothricin in crops. […]

[3] = molecular target: T1, M213R (arginine replacement for methionine) mutant form of R. gracilis D amino acid oxidase (Rhodotorula toruloides, UniProt P80324, M213R); test: Oxygen electrode assay of D-amino acid oxidase activity, M213R mutant, crude E. coli extract; format: biochemical; settings: 25° C., 50 mM Mops/KOH pH 7.0, 0.01 mM FAD; ammonium salt of DL phosphinothricin; estimated enzyme purity in extract 35+/-15% of total protein
T1 construct: made in house; host or cells: E. coli BL21 DE3 (Novagen pET 24A, T7 promoter)
Description: (§1) Additionally a series of particular DNA sequences encoding particularly targeted D-amino acid oxidase enzymes are generated. In particular, genes encoding Rhodotorula gracilis D amino acid oxidase with an arginine, serine, cysteine, lysine, asparagine or alanine replacing the methionine at position 213 and/or a histidine, serine, cysteine, asparagine or alanine replacing the tyrosine at position 238. The methods used are the same as described above except that, rather than a mixture of oligonucleotides, individual oligonucleotide pairs are designed and used to effect each single or double amino acid change. Each resulting mutant D-amino acid oxidase coding sequence is cloned for (untagged) expression behind the T7 promoter in Novagen pET 24A and transformed into E. coli BL21 DE3. The cells are grown in a 1.0 l fermenter in LCM50 medium supplemented with 100 ug/ml kanamycin, induced for expression with 1 mM IPTG and harvested by low-speed centrifugation.
(§2) Approximately 7 g wet weight of cells is washed in water. The cells are resuspended in an equal volume of 50 mM/Mops/KOH buffer at pH 7.0 containing 2 mM EDTA, 2 mM DTT and 0.01 mM FAD. […] Rates of oxygen consumption (after substraction of any drift in the bases line) are measured. […]

[4] = molecular target: T2, M213S (serine replacement for methionine) mutant form of R. gracilis D amino acid oxidase (Rhodotorula toruloides, UniProt P80324, M213S); test: Oxygen electrode assay of D-amino acid oxidase activity, M213S mutant, crude E. coli extract; format: biochemical; settings: 25° C., 50 mM Mops/KOH pH 7.0, 0.01 mM FAD; ammonium salt of DL phosphinothricin; estimated enzyme purity in extract 35+/-15% of total protein
T2 construct: made in house; host or cells: E. coli BL21 DE3 (Novagen pET 24A, T7 promoter)
Description: as §1, §2

[5] = tested on: Nicotiana tabacum (transgenic, stig 1 D-amino acid oxidase and plastocyanin/PAT); test: Transgenic tobacco (stig1 D-amino acid oxidase M213R plus plastocyanin promoter PAT) sprayed with DL phosphinothricin; format: in vivo
Description: In one variant of the method, the amino acid applied is racemic DL phosphinothricin. In this case, the DNA construct used for transformation comprises, in addition to the DNA sequence encoding a D-amino acid oxidase under operable expression control of a tissue specific female floral promoter region such as ‘stig 1’, also a DNA sequence (EMBL: A02774) a ‘PAT’ gene under operable control of a promoter region such as the region 5′ of the translational start of the plastocyanin gene of the Pisum sativum plastocyanin gene (EMBL accession number X16082). For example, the construct is the same as depicted in FIG. 1 except that the DNA sequence encoding D-amino acid oxidase is site-specifically mutated so that the M213R form of the enzyme is encoded. The plastocyanin promoter region provides for preferential expression in the green tissues of the plant. […] Thus, in this variant of the example, the non-phytotoxic substance D phosphinothricin is applied in its least costly and most readily available form as the commercial herbicide DL phosphinothricin racemate.

[6] = tested on: tobacco plants (transgenic, TA 29 D-amino acid oxidase and plastocyanin/PAT); test: Transgenic tobacco (TA 29 D-amino acid oxidase plus plastocyanin promoter PAT) sprayed with DL phosphinothricin; format: in vivo; settings: spray, rates between 250 g/ha and 5 kg/ha
Description: Analagous to example 1, in one variant of the example, the amino acid applied is racemic DL phosphinothricin. In this case the DNA construct used for transformation comprises, in addition to the DNA sequence encoding a D-amino acid oxidase under operable expression control of a tissue specific male floral promoter region such as ‘TA 29’, also a DNA sequence encoding a phosphinothricin N-acetyl transferase gene such as the ‘PAT’ gene under operable control of a promoter region such as that from the plastocyanin gene (in this case the region from the Pisum sativum plastocyanin gene).

[7] = tested on: mutant forms of R. gracilis D amino acid oxidase; test: Oxygen electrode assay, control experiments with pure enantiomers; format: biochemical, Rhodotorula gracilis; settings: rate relative to DL phosphinothricin, depending on concentration
Description: Approximately 7 g wet weight of cells is washed in water. The cells are resuspended in an equal volume of 50 mM/Mops/KOH buffer at pH 7.0 containing 2 mM EDTA, 2 mM DTT and 0.01 mM FAD. Cells are evenly suspended using a glass homogeniser and then disrupted using a one shot head in the Constant Systems (BudBrooke Rd, Warwick U.K.) Basic Z cell disrupter at 13500 psi. The crude extract is kept cold (˜4° C.) centrifuged at 30,000 gav for 1 h and the pellet discarded. Some of the extract protein is run out on an SDS PAGE gel stained with Coomassie Blue and, through side by side comparison with similarly prepared extracts of cells containing only ‘empty’ pET vector it is estimated that 2-50% of the total soluble protein in the extract is D-amino acid oxidase. Some of the extract protein is exchanged into 50 mM Mops/KOH buffer at pH 7.0 containing 0.01 mM FAD. This is diluted with the same buffer in a standard oxygen electrode cell (calibrated at 25° C. between zero and a saturated concentration of oxygen). Optionally, the D-amino acid oxiadse is further purified using ion-exchange, phenyl sepharose, fractional ammonium sulphate precipitation and gel filtration. Assays, at 25° C., are started by addition of a 200 mM solution of the ammonium salt of DL phosphinothricin to the diluted enzyme. […] Rates of oxygen consumption (after substraction of any drift in the bases line) are measured. […]

[8] = spray, rates between 250 g/ha and 5 kg/ha

Row | Compound | seed production after treatment [1] | viable pollen production after treatment [1] | further results
1 | CSCC[C@@H](N)C(=O)O [D methionine] | relatively little or no seed | near normal levels of viable pollen | 
2 | C[C@@H](N)C(=O)O [D alanine] | relatively little or no seed | near normal levels of viable pollen | 
3 | CC(C)C[C@@H](N)C(=O)O [D leucine] | relatively little or no seed | near normal levels of viable pollen | 
4 | CP(=O)(O)CCC(N)C(=O)O (stereo not drawn) [DL phosphinothricin] |  |  | reproductive tolerance to application [2]: substantially reproductively tolerant; rate of oxidation (oxygen consumption) [3]: ~14 nmol/min/mg of protein of crude extract; rate of oxidation (oxygen consumption) [4]: ~4 nmol/min/mg of protein of crude extract; yield of plastocyanin/PAT plants without D to L converting activity in floral tissues ([5]; no heterologous D-amino acid oxidase co-expressed in floral tissues): no significant loss of yield; reproductive tolerance to the herbicide of plants with plastocyanin promoter/PAT gene ([5]; rates in excess of 2 kg/ha): substantially complete reproductive tolerance; female fertility of treated plants [5, 8]: conditionally female sterile; male fertility of treated plants [5, 8]: normal or near-normal male fertility; visible damage of treated plants [5, 8]: not visibly damaged; female fertility of treated plants [6]: normal or near-normal female fertility; male fertility of treated plants [6]: conditionally male sterile; visible damage of treated plants [6]: not visibly damaged
5 | CP(=O)(O)CC[C@H](N)C(=O)O [L-form, L-phosphinothricin, reference compound] |  |  | oxidation of pure enantiomer in control experiments [7]: not oxidised at all
6 | N[C@H](CC(=O)O)C(=O)O [D aspartate] | relatively little or no seed | near normal levels of viable pollen | 
7 | NC(=O)C[C@@H](N)C(=O)O [D asparagine] | relatively little or no seed | near normal levels of viable pollen | 
8 | CP(=O)(O)CC[C@@H](N)C(=O)O [D-phosphinothricin] | relatively little or no seed | near normal levels of viable pollen | oxidation of pure enantiomer in control experiments [7]: up to twice the rate that the DL is
9 | N[C@H](CCC(=O)O)C(=O)O [D glutamate] | relatively little or no seed | near normal levels of viable pollen | 
